What was measured:
[1] = molecular target: KRas G12S (Homo sapiens, UniProt P01116, G12S); format: binding; conditions: TR-FRET displacement, read-out: Binding to KRas (IC50 nM) G12S
[2] = molecular target: KRas G12C (Homo sapiens, UniProt P01116, G12C); format: binding; conditions: TR-FRET displacement, read-out: Binding to KRas (IC50 nM) G12C
[3] = molecular target: KRas G12D (Homo sapiens, UniProt P01116, G12D); experiment: biochemical; conditions: Binding to KRas (IC50 nM) G12D, TR-FRET displacement, KRas G12D
[4] = molecular target: KRas Q61H (Homo sapiens, UniProt P01116, Q61H); experiment: KRas binding assay (TR-FRET displacement), KRas Q61H; conditions: TR-FRET displacement
[5] = molecular target: KRas G13D (Homo sapiens, UniProt P01116, G13D); format: binding; conditions: TR-FRET displacement, read-out: Binding to KRas (IC50 nM) G13D
[6] = molecular target: KRas G12V (Homo sapiens, UniProt P01116, G12V); experiment: biochemical; conditions: Binding to KRas (IC50 nM) G12V, TR-FRET displacement, KRas G12V
[7] = molecular target: KRas G12A (Homo sapiens, UniProt P01116, G12A); format: binding; conditions: TR-FRET displacement, read-out: Binding to KRas (IC50 nM) G12A
[8] = molecular target: KRas WT (Homo sapiens, UniProt P01116); experiment: KRas binding assay (TR-FRET displacement), KRas WT; conditions: TR-FRET displacement
KRas WT, sequence (P01116 1-169 isoform P01116-2): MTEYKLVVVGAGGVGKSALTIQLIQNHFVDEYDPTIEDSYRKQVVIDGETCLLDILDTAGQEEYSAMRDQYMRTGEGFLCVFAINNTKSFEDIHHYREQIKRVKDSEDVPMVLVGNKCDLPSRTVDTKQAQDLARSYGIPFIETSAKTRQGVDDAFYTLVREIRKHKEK

KRas Q61H, sequence (P01116 1-169 isoform P01116-2 Q61H): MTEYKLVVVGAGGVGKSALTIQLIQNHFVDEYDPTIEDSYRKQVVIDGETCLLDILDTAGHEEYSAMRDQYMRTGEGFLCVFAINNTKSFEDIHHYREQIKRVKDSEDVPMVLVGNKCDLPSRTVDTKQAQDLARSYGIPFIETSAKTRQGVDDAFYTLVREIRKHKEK
KRas G12D, sequence (P01116 1-169 isoform P01116-2 G12D): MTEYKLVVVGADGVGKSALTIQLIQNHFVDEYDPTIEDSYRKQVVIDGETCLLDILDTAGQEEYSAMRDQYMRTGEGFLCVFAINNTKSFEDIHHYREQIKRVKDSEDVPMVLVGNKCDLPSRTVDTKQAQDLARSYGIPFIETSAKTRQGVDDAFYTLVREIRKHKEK
KRas G12S, sequence (P01116 1-169 isoform P01116-2 G12S): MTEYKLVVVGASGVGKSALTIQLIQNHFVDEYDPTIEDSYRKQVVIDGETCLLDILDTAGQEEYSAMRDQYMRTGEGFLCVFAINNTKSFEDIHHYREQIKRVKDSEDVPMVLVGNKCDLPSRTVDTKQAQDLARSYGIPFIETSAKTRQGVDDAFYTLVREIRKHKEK
KRas G12C, sequence (P01116 1-169 isoform P01116-2 G12C): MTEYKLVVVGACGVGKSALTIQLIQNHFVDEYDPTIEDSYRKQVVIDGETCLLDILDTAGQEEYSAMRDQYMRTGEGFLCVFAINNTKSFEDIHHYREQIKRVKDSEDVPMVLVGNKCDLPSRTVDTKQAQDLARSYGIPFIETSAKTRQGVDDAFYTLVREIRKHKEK
KRas G12A, sequence (P01116 1-169 isoform P01116-2 G12A): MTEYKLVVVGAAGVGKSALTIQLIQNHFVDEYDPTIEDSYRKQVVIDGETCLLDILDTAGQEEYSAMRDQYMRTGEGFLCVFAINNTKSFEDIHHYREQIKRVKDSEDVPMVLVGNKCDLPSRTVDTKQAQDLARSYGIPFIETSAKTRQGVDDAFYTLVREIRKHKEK
KRas G13D, sequence (P01116 1-169 isoform P01116-2 G13D): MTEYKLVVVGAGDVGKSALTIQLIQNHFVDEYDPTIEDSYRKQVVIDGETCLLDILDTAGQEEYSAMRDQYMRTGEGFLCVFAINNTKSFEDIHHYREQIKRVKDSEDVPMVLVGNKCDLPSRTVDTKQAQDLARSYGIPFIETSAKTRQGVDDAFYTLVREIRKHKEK
KRas G12V, sequence (P01116 1-169 isoform P01116-2 G12V): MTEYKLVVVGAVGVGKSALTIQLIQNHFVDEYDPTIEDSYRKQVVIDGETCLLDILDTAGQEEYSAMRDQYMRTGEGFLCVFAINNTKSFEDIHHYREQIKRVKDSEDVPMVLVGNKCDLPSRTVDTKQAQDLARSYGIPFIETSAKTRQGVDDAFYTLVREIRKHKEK

Row | IC50 [1] [nM] | IC50 [2] [nM] | IC50 [3] [nM] | IC50 [4] [nM] | IC50 [5] [nM] | IC50 [6] [nM] | IC50 [7] [nM] | IC50 [8] [nM] | Compound
1 | 7920 | 5460 | 24800 | 17600 | 18400 | 3730 | 6870 | 6020 | CCc1cccc2cccc(N3CCc4c(nc(OCC5(CN(C)C)CC5)nc4N(C)CC4CC(F)C4)C3)c12 (stereo not drawn) [Example 560, 2-((1-((dimethylamino)methyl)cyclopropyl)methoxy)-7-(8-ethylnaphthalen-1-yl)-N-((3-fluorocyclobutyl)methyl)-N-methyl-5,6,7,8-tetrahydropyrido[3,4-d]pyrimidin-4-amine]
2 | 536 | 557 | 25700 | 1740 | 2190 | 6110 | 994 | 1280 | CCc1cccc2cccc(N3CCc4c(nc(OCC5(CN(C)C)CC5)nc4NCC4CN(c5ncccn5)C4)C3)c12 [Example 561, 2-((1-((dimethylamino)methyl)cyclopropyl)methoxy)-7-(8-ethylnaphthalen-1-yl)-N-((1-(pyrimidin-2-yl)azetidin-3-yl)methyl)-5,6,7,8-tetrahydropyrido[3,4-d]pyrimidin-4-amine]
3 | 6600 | 4270 | 25900 | 14000 | 21700 | 6370 | 7970 | 10700 | CCc1cccc2cccc(N3CCc4c(nc(OCC5(CN(C)C)CC5)nc4N4CCOC(c5nnc(C(C)C)o5)C4)C3)c12 (stereo not drawn) [Example 562, 1-(1-(((7-(8-ethylnaphthalen-1-yl)-4-(2-(5-isopropyl-1,3,4-oxadiazol-2-yl)morpholino)-5,6,7,8-tetrahydropyrido[3,4-d]pyrimidin-2-yl)oxy)methyl)cyclopropyl)-N,N-dimethylmethanamine]
4 | 320 | 697 | 30500 | 231 | 1040 | 6510 | 1370 | 776 | CCc1cccc2cccc(N3CCc4c(nc(OCC5(CN(C)C)CC5)nc4NCc4nnc5c(Cl)cccn45)C3)c12 [Example 563, N-((8-chloro-[1,2,4]triazolo[4,3-a]pyridin-3-yl)methyl)-2-((1-((dimethylamino)methyl)cyclopropyl)methoxy)-7-(8-ethylnaphthalen-1-yl)-5,6,7,8-tetrahydropyrido[3,4-d]pyrimidin-4-amine]
5 | 14200 | 8580 | 29500 | 4380 | 7400 | 3710 | 11600 | 6920 | CCc1cccc2cccc(N3CCc4c(nc(OCC5(CN(C)C)CC5)nc4N4CCN(c5nc(O)cs5)CC4)C3)c12 [Example 564, 2-(4-(2-((1-((dimethylamino)methyl)cyclopropyl)methoxy)-7-(8-ethylnaphthalen-1-yl)-5,6,7,8-tetrahydropyrido[3,4-d]pyrimidin-4-yl)piperazin-1-yl)thiazol-4-ol]
6 | 12900 | 8620 | 34300 | 34400 | 18900 | 6620 | 12200 | 13000 | CCc1cccc2cccc(N3CCc4c(nc(OCC5(CN(C)C)CC5)nc4NCCc4cc(Br)no4)C3)c12 [Example 565, N-(2-(3-bromoisoxazol-5-yl)ethyl)-2-((1-((dimethylamino)methyl)cyclopropyl)methoxy)-7-(8-ethylnaphthalen-1-yl)-5,6,7,8-tetrahydropyrido[3,4-d]pyrimidin-4-amine]
7 | 8690 | 3760 | 35600 | 15200 | 15300 | 5700 | 7990 | 8780 | CCc1cccc2cccc(N3CCc4c(nc(OCC5(CN(C)C)CC5)nc4N4CCOC(c5noc(C6CC6)n5)C4)C3)c12 (stereo not drawn) [Example 566, 1-(1-(((4-(2-(5-cyclopropyl-1,2,4-oxadiazol-3-yl)morpholino)-7-(8-ethylnaphthalen-1-yl)-5,6,7,8-tetrahydropyrido[3,4-d]pyrimidin-2-yl)oxy)methyl)cyclopropyl)-N,N-dimethylmethanamine]
8 | 4330 | 3470 | 37600 | 9550 | 11800 | 5760 | 6050 | 11600 | CCc1cccc2cccc(N3CCc4c(nc(OCC5(CN(C)C)CC5)nc4NCc4cc(C5CC5)nn4C)C3)c12 [Example 567, N-((3-cyclopropyl-1-methyl-1H-pyrazol-5-yl)methyl)-2-((1-((dimethylamino)methyl)cyclopropyl)methoxy)-7-(8-ethylnaphthalen-1-yl)-5,6,7,8-tetrahydropyrido[3,4-d]pyrimidin-4-amine]
9 | 13600 | 7900 | 39100 | 15300 | 19800 | 5210 | 13400 | 15700 | CCc1cccc2cccc(N3CCc4c(nc(OCC5(CN(C)C)CC5)nc4NCCc4ncc(F)cc4F)C3)c12 [Example 568, N-(2-(3,5-difluoropyridin-2-yl)ethyl)-2-((1-((dimethylamino)methyl)cyclopropyl)methoxy)-7-(8-ethylnaphthalen-1-yl)-5,6,7,8-tetrahydropyrido[3,4-d]pyrimidin-4-amine]
10 | 8590 | 7220 | 41500 | 10500 | 16900 | 4610 | 10800 | 12200 | CCc1cccc2cccc(N3CCc4c(nc(OCC5(CN(C)C)CC5)nc4NCC4(c5ccccc5)CCC(=O)N4)C3)c12 (stereo not drawn) [Example 569, 5-(((2-((1-((dimethylamino)methyl)cyclopropyl)methoxy)-7-(8-ethylnaphthalen-1-yl)-5,6,7,8-tetrahydropyrido[3,4-d]pyrimidin-4-yl)amino)methyl)-5-phenylpyrrolidin-2-one]
11 | 58 | 74 | 39000 | 37 | 72 | 13700 | 134 | 99 | CCc1cccc2cccc(N3CCc4c(nc(OCC5(CN(C)C)CC5)nc4NCCc4nnc5n4CCC5)C3)c12 [Example 570, N-(2-(6,7-dihydro-5H-pyrrolo[2,1-c][1,2,4]triazol-3-yl)ethyl)-2-((1-((dimethylamino)methyl)cyclopropyl)methoxy)-7-(8-ethylnaphthalen-1-yl)-5,6,7,8-tetrahydropyrido[3,4-d]pyrimidin-4-amine]
12 | 10100 | 5470 | 14400 | 10500 | 13600 | 4040 | 9520 | 10300 | CCc1cccc2cccc(N3CCc4c(nc(OCC5(CN(C)C)CC5)nc4NCc4cnnn4C)C3)c12 [Example 662, 2-((1-((dimethylamino)methyl)cyclopropyl)methoxy)-7-(8-ethylnaphthalen-1-yl)-N-((1-methyl-1H-1,2,3-triazol-5-yl)methyl)-5,6,7,8-tetrahydropyrido[3,4-d]pyrimidin-4-amine]
13 | 62800 | 37800 | 6840 | > 100000 | > 100000 | 10800 | 83100 | 87600 | CCc1cccc2cccc(N3CCc4c(nc(OCC5(CN(C)C)CC5)nc4N4CCn5nncc5C4)C3)c12 [Example 665, 1-(1-(((4-(6,7-dihydro-[1,2,3]triazolo[1,5-a]pyrazin-5(4H)-yl)-7-(8-ethylnaphthalen-1-yl)-5,6,7,8-tetrahydropyrido[3,4-d]pyrimidin-2-yl)oxy)methyl)cyclopropyl)-N,N-dimethylmethanamine]
14 | 1980 | 602 | 9750 | 2030 | 1970 | 1540 | 1880 | 1960 | CCc1cccc2cccc(N3CCc4c(nc(OCC5(CN(C)C)CC5)nc4NCCc4sc(N)nc4C)C3)c12 [Example 670, 5-(2-((2-((1-((dimethylamino)methyl)cyclopropyl)methoxy)-7-(8-ethylnaphthalen-1-yl)-5,6,7,8-tetrahydropyrido[3,4-d]pyrimidin-4-yl)amino)ethyl)-4-methylthiazol-2-amine]
15 | 16500 | 5240 | 11800 | 30200 | 33000 | 1980 | 10200 | 23900 | CCc1cccc2cccc(N3CCc4c(nc(OCC5(CN(C)C)CC5)nc4NCCc4nnc(N)o4)C3)c12 [Example 671, 5-(2-((2-((1-((dimethylamino)methyl)cyclopropyl)methoxy)-7-(8-ethylnaphthalen-1-yl)-5,6,7,8-tetrahydropyrido[3,4-d]pyrimidin-4-yl)amino)ethyl)-1,3,4-oxadiazol-2-amine]
